64 compounds from a melting point compilation (Tetko et al.; mined from patent text by program, amines drawn as free bases though some values may be those of a salt) can be followed below.

In the case of `CC(C)(C)OC(=O)NCCCCn1cnc2c(Cl)nc3ccccc3c21`, the melting point (as a rule, the temperature of the solid-liquid transition) was in the range of 148 to 150 °C.
Then `CCOC(=O)c1nc(C)cc(C#N)c1C`, with 55.5 °C; and `CN(C)Cc1cc(C(=O)c2cccs2)cc(C(C)(C)C)c1O`, with 132 to 134 °C.
`COc1ccc(OC)c(COc2ccc3nc[nH]c(=O)c3c2)c1` showed a melting point of 155 to 158 °C.
In turn, `COC(=O)C1=C(N)C(C)SC1` (centres undefined) returned a melting point of 60 °C.
In turn, `CCCCCCOc1cccc2c(OCCCCCC)cccc12` gave a melting point of 92 to 93 °C.
Then `O=C1CC(=O)c2cc(OCCCOc3ccccc3)ccc21`, with 91 to 94 °C.
Then `Cc1cc(CCCCCS(=O)c2ccc(C3=NCCO3)cc2)on1` (centres undefined), with 110 to 111 °C; and `COc1ccc(C=C2NC(=O)NC2=O)cc1`, with 242 to 244 °C.
In turn, `N#CCC(=O)OC(COc1ccc(C(=O)c2ccccc2)c(O)c1)COc1ccc(C(=O)c2ccccc2)c(O)c1` returned a melting point of 167 to 168 °C.
Next, `CCOC(=O)C1=C(C)NC(=S)NC1c1cccc([N+](=O)[O-])c1` (centres undefined): 208 to 209 °C; `Cc1cc(C2N(c3ccccc3)CCN2c2ccccc2)c(O)cc1N(C)C`: 207 to 212 °C; `COC(=O)c1c(F)c(F)c(F)c(F)c1C(=O)OC`: 68 to 70 °C.
Next, `CC(C)OCCOc1ccc(-c2nc(C(=O)Nc3nccs3)c(-c3ccc(Cl)cc3)[nH]2)cc1`: 121 to 125 °C; `Cc1c(CN2CCc3c(c4cccc(F)c4n3C)C2=O)ncn1S(=O)(=O)N(C)C`: 162 to 166 °C.
Then `Cc1ccc(C(=O)C=CN(C)C)s1`, with 118 to 121 °C; and `FCc1cccc(C#CCCn2ncc(-c3ccc(F)cc3)n2)n1`, with 84 to 86 °C; and `CN(C)c1cc[nH]c(=O)c1[N+](=O)[O-]`, with 208 to 209 °C.
`O=S(=O)(NCc1ccc(O)cc1)c1ccc(Cl)cc1` showed a melting point of 187 to 189 °C.
Compound `O=c1c(Cl)c(S(=O)(=O)C2CCCCC2)cnn1-c1ccccc1` returned a melting point of 195 to 196 °C.
Then `OCCCC1=NN(c2nccs2)C(O)(c2ccc(Cl)cc2)C1` (centres undefined), with 146 to 147 °C.
On to `NC(=NO)c1cccc(-c2nc3sccn3c2-c2ccnc(NC3CCCN(S(=O)(=O)c4ccc(Cl)cc4)C3)n2)c1` (centres undefined), for which the melting point fell in the range of 272 to 273 °C.
Next, `O=C(O)C(Cl)(Cl)CCCCCCCCCCc1ccccc1`: 157 to 159 °C; `Clc1ccc(CN2CC=C(/C=C/c3ccccc3)CC2)cc1`: 141 to 142 °C.
In turn, `Cc1ccc(Sc2c(SCc3ccccc3)cc(C(=O)O)cc2S(N)(=O)=O)cc1` yielded a melting point of 250 to 251 °C.
Then `O=C1NC2(CCCC2)CCCC1(Cl)Cl`, with 114 to 120 °C; and `N#Cc1cc2c(cc1Br)nc1n2CCC1`, with 224 °C; and `CC(C)(C)OC(=O)NC(Cc1ccccc1)C(=O)Oc1ccc2ccccc2c1` (centres undefined), with 118 to 119 °C.
Next, `CN1CCC=C(c2cccc3[nH]ccc23)C1`: 175 °C; `Cc1cc(C)c(C=C(C(=O)O)c2csc(N)n2)c(C)c1`: greater than 200 °C.
Then `CCOc1ccc(C(c2ccc(C(C)CC)cc2)C(CC)[N+](=O)[O-])cc1` (centres undefined), with 89 to 90 °C.
In turn, `COc1cc(C(=O)NS(=O)(=O)c2ccccc2C)ccc1Cc1cn(C(=O)NC(c2ccccc2)c2ccccc2)c2ccc(NC(=O)OC3CCCC3)cc12` returned a melting point of 253 to 254 °C.
Next, `CC(=O)CCc1ccc(I)cc1`: 75 to 76 °C; `COC1=CC(Cl)(OC)NC(C(=O)CC(=O)Nc2ccccc2)=N1` (centres undefined): 142 to 144 °C; `O=[N+]([O-])c1ccc2c(c1)C(c1ccccc1F)=NCc1nc(CO)cn1-2`: 230 to 231 °C.
For the compound `CC(C)(C)c1cc(C(=O)NCC(=O)Nc2ccc(N=C(N)c3cccs3)cc2)cc(C(C)(C)C)c1O`, the melting point is greater than 250 °C.
Then `CC[C@@]1(O)CC(=O)c2c(OC)ccc(OC)c2C1`, with 132 to 134 °C.
In turn, `O=C1c2ccccc2C(=O)c2c1oc1c2ccc2ccc(O)cc21` displayed a melting point of 332 °C.
Then `COC(=O)Nc1nn2cccc2c(=O)[nH]1`, with 232 °C; and `CC12CCC(CC1=C=C1C=CC(Nc3nc(Cl)nc(Cl)n3)=CC1)C2(C)C` (centres undefined), with 238 °C.
`CNc1nc(-c2cccc(NC(=O)c3ccccc3)c2)c2cc(O)c(OC)cc2n1` registered a melting point of 145 to 147 °C.
Next, `CNC(=O)Oc1cccc(C2CCCN2C(=O)c2ccccc2)c1` (centres undefined): 117 to 121 °C; `CN1CCCC1=Cc1ccc([N+](=O)[O-])cc1[N+](=O)[O-]`: 188 to 190 °C; `CCOC(=O)C1=C(C)NC(C(OCC)OCC)=C(C(=O)OCC)C1c1ccccc1C(F)(F)F` (centres undefined): 82 to 83 °C.
Next, `Oc1c(Br)cc(Cl)cc1Cc1cc(F)cc(Cc2cc(Cl)cc(Br)c2O)c1O`: 164 °C; `CC(C)=CC(=O)Nc1ccc2ncnc(Nc3cccc(Br)c3)c2c1`: 300 to 301 °C.
The compound `CN(C)c1ccc(CN(C(=O)C2CCCc3c(O)cccc32)c2ccccc2)cc1` (centres undefined) returned a melting point of 138 to 143 °C.
The compound `COC1(C)CSC2C(NC(=O)Cc3ccccc3)C(=O)N2C1C(=O)OCC(Cl)(Cl)Cl` (centres undefined) had a melting point of 132 to 133 °C.
Then `O=C(NCc1cccs1)C12CC3CC(CC1C3)C2`, with 143 to 145 °C; and `CCOC(=O)c1ccc(-c2c(Cl)c(CCl)nc3sc4c(c23)CCN(C(=O)OCc2ccccc2)C4)cc1`, with 123 to 124 °C.
`CC(C)Oc1cc(-n2c(=O)[nH]c(C(F)(F)C(F)(F)F)c(F)c2=O)c(F)cc1Cl` came in with a melting point of 160 to 162 °C.
With `CCOC(=O)c1cc(C)n(-c2cccc(S(C)(=O)=O)c2)c1-c1ccccc1`, the melting point fell in the range of 131 to 133 °C.
Then `O=C(O)c1oc2ccccc2c1CCc1ccccc1`, with 169 to 172 °C.
Then `CCOC(=O)N1CCn2c(nc(-c3ccncc3)cc2=O)C(NC(=O)c2ccc3c(c2)CNCC3)C1` (racemic), with 258 to 260 °C; and `CCOC(=O)c1sc2ccc(Cl)cc2c1C`, with 92.5 to 94 °C.
In the case of `Cc1cc(C(=O)N(C)C)cc(N)n1`, the melting point was 165 to 171 °C.
Then `N#Cc1ccc(CCC(=O)C2CC2)cc1`, with 76 °C; and `COc1ccc(-c2ccc(C)cn2)c(F)c1F`, with 73 °C.
Then `Cc1cc(Oc2ccc(N)cc2)c2cc3c(cc2n1)OCO3`, with 251 to 253 °C; and `Cc1ccc(C2=NN(C(=O)c3cccnc3)CC2)cc1`, with 100 to 102 °C; and `CC(C)c1nc(CCOC2=CCCCCCC2)n(C)c1Sc1cc(Cl)cc(Cl)c1`, with 73 to 74 °C.
As to `CC(C)(C)CC(=O)NN1C(=O)C(NC(=O)Nc2cccc(N)c2)CC(c2ccccc2)CC1c1ccccc1` (centres undefined), the melting point was 195 to 205 °C.
Then `CCOC(=O)c1cn(Cc2ccccc2)nc1OCc1ccc(OCc2nc(-c3ccco3)oc2C)c(Cl)c1`, with 153 to 154 °C; and `CC(C)(C)c1cc(C(C)(C)C)c(=O)c2nc3ccccc3sc1-2`, with 137 to 141 °C.
